Experimental data as given in ChEMBL document CHEMBL1201862, “PubChem BioAssay data set” (2004).
The source made the active and inactive calls.

Experiments:
Caspase-3 = molecular target: T1, Caspase-3 (Homo sapiens, UniProt P42574); type: functional;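 also: Dose-response selectivity test against caspase-3 for candidate inhibitors of sentrin-specific proteases (SENPs)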
T1 sequence (P42574 whole entry): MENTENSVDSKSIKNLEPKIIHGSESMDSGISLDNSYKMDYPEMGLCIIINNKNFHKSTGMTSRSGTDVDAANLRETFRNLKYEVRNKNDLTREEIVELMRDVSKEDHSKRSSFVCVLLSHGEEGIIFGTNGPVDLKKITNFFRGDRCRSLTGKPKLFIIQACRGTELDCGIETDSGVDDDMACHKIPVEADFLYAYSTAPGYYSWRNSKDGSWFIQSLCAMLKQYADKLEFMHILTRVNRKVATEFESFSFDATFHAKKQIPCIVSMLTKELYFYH

[1] = molecular target: T2, Sentrin-specific protease 7 (Homo sapiens, UniProt Q9BQF6); type: functional;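 also: Luminescence-based dose-response confirmation of ultra-high-throughput screening hits, measuring inhibition of SENP7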
T2 sequence (Q9BQF6 whole entry): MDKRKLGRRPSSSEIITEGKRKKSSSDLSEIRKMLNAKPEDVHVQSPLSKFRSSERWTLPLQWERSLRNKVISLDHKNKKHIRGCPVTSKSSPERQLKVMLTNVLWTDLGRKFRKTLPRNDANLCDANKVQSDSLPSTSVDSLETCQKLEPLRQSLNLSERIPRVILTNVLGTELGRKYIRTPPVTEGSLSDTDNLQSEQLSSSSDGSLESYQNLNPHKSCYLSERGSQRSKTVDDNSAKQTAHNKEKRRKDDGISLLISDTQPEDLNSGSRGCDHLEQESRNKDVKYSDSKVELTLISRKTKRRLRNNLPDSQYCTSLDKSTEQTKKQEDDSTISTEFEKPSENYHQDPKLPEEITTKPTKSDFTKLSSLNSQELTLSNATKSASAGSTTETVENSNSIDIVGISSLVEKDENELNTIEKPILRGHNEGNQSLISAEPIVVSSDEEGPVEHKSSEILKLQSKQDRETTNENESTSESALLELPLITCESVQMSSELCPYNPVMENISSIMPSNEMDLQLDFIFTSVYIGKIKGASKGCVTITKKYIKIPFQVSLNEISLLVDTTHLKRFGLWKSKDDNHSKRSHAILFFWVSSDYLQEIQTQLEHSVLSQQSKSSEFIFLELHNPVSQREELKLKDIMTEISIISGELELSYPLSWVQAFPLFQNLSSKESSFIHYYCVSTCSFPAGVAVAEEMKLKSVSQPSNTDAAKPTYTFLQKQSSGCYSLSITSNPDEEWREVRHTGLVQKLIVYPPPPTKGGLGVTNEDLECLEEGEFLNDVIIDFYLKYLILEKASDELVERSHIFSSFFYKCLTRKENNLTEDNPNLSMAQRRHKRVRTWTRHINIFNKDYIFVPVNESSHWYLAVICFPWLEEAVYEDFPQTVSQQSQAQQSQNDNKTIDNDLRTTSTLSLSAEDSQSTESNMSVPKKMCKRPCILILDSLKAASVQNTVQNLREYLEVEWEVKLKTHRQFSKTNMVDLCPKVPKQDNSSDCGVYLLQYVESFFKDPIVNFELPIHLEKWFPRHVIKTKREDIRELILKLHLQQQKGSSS

[2] = molecular target: T3, Sentrin-specific protease 6 (Homo sapiens, UniProt Q9GZR1); type: functional;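 also: Luminescence-based dose-response confirmatory assay of SENP6 inhibition, following up an ultra-high-throughput screen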
T3 sequence (Q9GZR1 whole entry): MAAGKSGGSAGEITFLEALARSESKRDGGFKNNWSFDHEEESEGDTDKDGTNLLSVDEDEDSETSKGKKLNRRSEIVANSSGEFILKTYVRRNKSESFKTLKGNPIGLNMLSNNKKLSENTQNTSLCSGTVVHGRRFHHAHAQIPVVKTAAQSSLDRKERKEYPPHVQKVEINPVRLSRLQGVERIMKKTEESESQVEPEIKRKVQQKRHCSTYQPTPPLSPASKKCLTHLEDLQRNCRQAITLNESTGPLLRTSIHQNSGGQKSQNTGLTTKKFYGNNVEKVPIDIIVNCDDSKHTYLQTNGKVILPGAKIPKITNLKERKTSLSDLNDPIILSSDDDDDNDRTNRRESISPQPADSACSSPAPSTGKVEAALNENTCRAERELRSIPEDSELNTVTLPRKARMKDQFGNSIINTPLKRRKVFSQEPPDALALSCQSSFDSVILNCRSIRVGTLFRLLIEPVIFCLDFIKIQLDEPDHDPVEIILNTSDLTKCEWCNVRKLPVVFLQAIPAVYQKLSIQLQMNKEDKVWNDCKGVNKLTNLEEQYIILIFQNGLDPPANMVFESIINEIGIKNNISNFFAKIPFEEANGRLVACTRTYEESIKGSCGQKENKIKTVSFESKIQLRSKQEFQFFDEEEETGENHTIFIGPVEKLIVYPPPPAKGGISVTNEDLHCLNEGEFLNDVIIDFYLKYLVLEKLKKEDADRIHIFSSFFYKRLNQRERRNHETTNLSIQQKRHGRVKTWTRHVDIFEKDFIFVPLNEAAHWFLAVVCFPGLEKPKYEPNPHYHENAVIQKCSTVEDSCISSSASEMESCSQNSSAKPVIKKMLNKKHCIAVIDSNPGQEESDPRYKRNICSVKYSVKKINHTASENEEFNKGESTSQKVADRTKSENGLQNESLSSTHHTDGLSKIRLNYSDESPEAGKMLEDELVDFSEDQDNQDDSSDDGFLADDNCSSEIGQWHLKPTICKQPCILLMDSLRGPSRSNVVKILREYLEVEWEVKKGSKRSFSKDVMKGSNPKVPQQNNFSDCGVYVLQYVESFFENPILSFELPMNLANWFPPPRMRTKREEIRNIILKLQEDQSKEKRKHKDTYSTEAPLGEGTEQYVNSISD

[3] = molecular target: T4, Sentrin-specific protease 8 (Homo sapiens, UniProt Q96LD8); type: functional;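 also: luminescence read-out of SENP8 inhibition, dose-response confirmation following an ultra-high-throughput screen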
T4 sequence (Q96LD8 whole entry): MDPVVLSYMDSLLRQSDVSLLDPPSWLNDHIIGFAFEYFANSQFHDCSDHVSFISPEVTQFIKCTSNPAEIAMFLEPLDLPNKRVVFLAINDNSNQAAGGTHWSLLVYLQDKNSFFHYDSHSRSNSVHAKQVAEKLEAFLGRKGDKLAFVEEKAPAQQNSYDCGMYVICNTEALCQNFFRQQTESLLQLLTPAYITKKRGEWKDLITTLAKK

BJ [4] = assay: cytotoxicity toward BJ-TERT fibroblasts, dose response, cell-based, RAS-independent, luminescence (AID 1933); type: functional; conditions: Homo sapiens
BJ [5] = assay: cells; type: functional, cell-based; conditions: Homo sapiens
BJ [6] = assay: cytotoxicity toward BJ-TERT-LT-ST fibroblasts, dose response, cell-based, RAS-independent, luminescence (AID 1935); type: functional; conditions: Homo sapiens;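 also: BJ fibroblasts immortalized with TERT plus LT and ST oncogenes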
[7] = cytotoxicity toward DRD oncogenic fibroblasts, dose response, cell-based, non-viral oncogenic, luminescence (AID 1934); type: functional; conditions: Homo sapiens
[8] = cytotoxicity in HEK-293T cells, dose response, cytotoxicity control for TCR NF-kB inhibitor project, luminescence, T-cell screen hits (AID 489026); type: functional, cell-based;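 also: cells exposed to compound about 14 hours before the viability readout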
[9] = Luminescence Cell-Based Dose Retest to Confirm Inhibitors of Cancer Stem Cells. [Related pubchem assays (depositor defined):AID2717, AID2721]; type: functional; conditions: Homo sapiens
Fatty acid synthase [10] = molecular target: T5, Fatty acid synthase (Homo sapiens, UniProt P49327); assay: FAS thioesterase domain inhibitors, dose response, biochemical, endpoint fluorescence intensity, uHTS hits (AID 624327); type: functional;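 also: fluorescence from hydrolysis of an O-methyl fluorescein acyl ester substrate by the enzyme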
Fatty acid synthase [11] = molecular target: T5, Fatty acid synthase; assay: FAS thioesterase domain inhibitors, dose response, biochemical, kinetic fluorescence intensity (AID 624326); type: functional;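 also: rate of fluorescence rise from hydrolysis of a fluorogenic O-methyl fluorescein ester substrate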
Beta-lactamase [12] = molecular target: Beta-lactamase (Salmonella choleraesuis (strain SC-B67), UniProt Q5J463); assay: Epi-absorbance-based counterscreen for selective VIM-2 inhibitors: dose response biochemical high throughput screening assay to identify inhibitors of TEM-1 serine-beta-lactamase.
Beta-lactamase [13] = molecular target: T6, Beta-lactamase (Pseudomonas aeruginosa, UniProt Q79MP6); assay: IMP-1 metallo-beta-lactamase inhibitors, dose response, selectivity assay for VIM-2 inhibitor project, biochemical, epi-absorbance (AID 1920)
Beta-lactamase [14] = molecular target: T6, Beta-lactamase; assay: […] counterscreen for selective VIM-2 inhibitors: dose response biochemical high throughput screening assay to identify inhibitors of IMP-1 metallo-beta-lactamase.
[15] = molecular target: Eukaryotic translation initiation factor 4E (Mus musculus, UniProt P63073); assay: eIF4E–eIF4G protein interaction inhibitors, dose response, biochemical, TR-FRET (AID 855); type: functional;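 also: potency for disrupting eIF4E binding to eIF4GI seen as loss of FRET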
[16] = molecular target: T7, Endoribonuclease toxin MazF (Escherichia coli K-12, UniProt P0AE70); assay: MazF toxin RNase activators, dose response, biochemical, fluorescence, single-stranded RNA substrate, uHTS hits (AID 588481); type: functional
T7 sequence (P0AE70 whole entry): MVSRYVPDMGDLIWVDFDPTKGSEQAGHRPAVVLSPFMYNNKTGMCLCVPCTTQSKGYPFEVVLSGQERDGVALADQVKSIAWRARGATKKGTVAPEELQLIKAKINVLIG

[17] = molecular target: T7, Endoribonuclease toxin MazF; assay: fluorescent RNA oligo signal without MazF, dose response, counter-screen for MazEF activator project, biochemical, fluorescence, single-stranded RNase substrate (AID 588502); type: functional
P388/ADR = assay: cells; type: functional; conditions: Mus musculus
SN12K1 = assay: cells; type: functional; conditions: Homo sapiens
P388 = assay: cells; type: functional; conditions: Mus musculus
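For AC50 in this document: cells exposed to compound for roughly 70 hours or longer before luminescence read.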

T6 sequence (Q79MP6 whole entry): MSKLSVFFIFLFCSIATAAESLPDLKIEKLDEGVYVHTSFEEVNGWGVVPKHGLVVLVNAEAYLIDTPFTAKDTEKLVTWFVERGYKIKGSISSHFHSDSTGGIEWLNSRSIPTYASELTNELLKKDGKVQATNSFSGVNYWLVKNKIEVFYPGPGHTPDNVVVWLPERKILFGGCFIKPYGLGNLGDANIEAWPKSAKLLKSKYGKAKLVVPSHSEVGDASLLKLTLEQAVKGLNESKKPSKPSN
T5 sequence (P49327 whole entry, the tested form may be a part): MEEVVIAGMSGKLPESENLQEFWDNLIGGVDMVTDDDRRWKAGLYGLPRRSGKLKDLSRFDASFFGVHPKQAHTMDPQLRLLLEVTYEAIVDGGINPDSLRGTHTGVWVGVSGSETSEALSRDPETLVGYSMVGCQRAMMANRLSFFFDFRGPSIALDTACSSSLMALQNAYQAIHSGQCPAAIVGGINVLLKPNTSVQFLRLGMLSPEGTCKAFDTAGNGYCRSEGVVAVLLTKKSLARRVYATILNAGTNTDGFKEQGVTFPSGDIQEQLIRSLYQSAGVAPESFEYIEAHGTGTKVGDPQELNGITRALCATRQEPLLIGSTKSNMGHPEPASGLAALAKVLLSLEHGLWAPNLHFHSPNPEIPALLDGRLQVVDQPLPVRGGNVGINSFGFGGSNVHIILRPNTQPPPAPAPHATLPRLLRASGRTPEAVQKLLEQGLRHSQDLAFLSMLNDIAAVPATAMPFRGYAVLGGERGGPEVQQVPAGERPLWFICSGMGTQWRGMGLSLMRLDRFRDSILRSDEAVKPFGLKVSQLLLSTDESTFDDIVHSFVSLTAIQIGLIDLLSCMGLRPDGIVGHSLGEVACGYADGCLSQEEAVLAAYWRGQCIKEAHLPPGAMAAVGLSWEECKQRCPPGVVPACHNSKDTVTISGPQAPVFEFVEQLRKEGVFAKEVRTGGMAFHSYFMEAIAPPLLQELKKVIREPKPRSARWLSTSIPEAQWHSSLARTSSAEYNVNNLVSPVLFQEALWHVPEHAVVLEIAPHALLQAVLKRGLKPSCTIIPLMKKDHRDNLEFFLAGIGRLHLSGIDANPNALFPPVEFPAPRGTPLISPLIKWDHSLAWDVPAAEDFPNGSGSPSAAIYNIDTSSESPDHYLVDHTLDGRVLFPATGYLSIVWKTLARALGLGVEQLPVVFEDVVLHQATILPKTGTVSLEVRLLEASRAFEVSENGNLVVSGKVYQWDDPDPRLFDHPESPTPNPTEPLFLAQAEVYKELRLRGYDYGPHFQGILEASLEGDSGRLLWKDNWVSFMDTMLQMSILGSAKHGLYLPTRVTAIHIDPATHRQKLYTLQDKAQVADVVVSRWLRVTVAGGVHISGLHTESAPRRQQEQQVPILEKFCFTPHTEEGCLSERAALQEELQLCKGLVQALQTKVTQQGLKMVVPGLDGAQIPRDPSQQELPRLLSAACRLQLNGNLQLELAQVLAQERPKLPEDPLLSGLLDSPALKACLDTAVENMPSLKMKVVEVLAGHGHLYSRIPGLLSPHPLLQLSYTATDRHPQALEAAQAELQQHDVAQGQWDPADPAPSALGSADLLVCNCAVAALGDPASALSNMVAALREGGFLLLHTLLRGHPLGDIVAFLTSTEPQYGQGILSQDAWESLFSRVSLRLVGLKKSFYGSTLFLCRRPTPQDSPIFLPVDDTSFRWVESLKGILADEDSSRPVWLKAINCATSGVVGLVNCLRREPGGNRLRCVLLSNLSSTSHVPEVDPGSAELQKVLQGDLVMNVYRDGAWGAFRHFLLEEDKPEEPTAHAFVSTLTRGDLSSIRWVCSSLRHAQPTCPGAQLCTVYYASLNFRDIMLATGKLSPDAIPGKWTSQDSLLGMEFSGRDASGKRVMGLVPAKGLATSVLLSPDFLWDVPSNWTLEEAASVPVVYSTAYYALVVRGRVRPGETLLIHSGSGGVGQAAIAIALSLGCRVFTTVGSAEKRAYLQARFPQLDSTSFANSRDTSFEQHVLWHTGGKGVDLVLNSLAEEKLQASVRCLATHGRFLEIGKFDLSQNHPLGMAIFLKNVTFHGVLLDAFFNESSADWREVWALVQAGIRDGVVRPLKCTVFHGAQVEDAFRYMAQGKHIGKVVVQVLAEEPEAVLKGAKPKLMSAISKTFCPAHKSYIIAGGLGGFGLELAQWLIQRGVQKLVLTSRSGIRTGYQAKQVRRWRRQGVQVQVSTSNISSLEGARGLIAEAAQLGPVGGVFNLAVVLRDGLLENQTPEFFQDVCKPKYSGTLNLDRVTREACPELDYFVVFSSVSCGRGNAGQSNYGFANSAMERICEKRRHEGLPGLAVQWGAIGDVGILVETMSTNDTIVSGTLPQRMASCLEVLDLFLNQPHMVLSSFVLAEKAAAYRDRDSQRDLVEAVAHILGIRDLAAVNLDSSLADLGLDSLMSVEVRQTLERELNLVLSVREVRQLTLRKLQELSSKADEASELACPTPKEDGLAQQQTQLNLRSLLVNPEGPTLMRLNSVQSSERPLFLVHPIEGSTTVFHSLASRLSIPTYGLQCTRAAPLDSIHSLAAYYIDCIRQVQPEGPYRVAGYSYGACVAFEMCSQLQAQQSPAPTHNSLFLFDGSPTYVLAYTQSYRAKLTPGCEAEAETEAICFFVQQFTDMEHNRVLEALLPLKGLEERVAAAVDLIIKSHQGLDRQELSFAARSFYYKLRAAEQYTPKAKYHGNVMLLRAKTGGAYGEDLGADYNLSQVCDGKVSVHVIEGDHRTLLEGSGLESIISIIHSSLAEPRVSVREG
Chain of Eukaryotic translation initiation factor 4E (P63073 whole entry): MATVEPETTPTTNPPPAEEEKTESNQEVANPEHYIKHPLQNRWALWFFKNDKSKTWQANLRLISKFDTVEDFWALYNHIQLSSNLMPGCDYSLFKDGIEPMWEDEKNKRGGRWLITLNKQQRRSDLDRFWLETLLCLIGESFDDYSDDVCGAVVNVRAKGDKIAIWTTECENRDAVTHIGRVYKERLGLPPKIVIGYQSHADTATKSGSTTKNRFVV
Chain of Beta-lactamase (Salmonella choleraesuis (strain SC-B67), UniProt Q5J463) (Q5J463 whole entry): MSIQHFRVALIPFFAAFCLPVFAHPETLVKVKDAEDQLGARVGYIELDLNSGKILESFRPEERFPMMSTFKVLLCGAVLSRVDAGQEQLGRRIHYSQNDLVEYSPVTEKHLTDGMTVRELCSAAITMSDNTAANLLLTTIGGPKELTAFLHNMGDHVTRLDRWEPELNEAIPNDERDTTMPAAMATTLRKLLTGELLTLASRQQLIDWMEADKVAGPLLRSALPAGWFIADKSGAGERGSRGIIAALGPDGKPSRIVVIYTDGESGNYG

## COC(=O)c1ccc(NC(=O)Nc2ccc(F)c(Cl)c2)cc1
Caspase-3
  IC50: 48 µM (active)
[1]
  IC50: 6.56 µM (active)
[2]
  IC50: > 100 µM (inactive)
[3]
  IC50: > 100 µM (inactive)

## CCOc1ccc(S(=O)(=O)NCc2ccccn2)cc1NC(=O)c1ccccc1F
BJ [4]
  EC50: 2.76 µM (active)
BJ [5]
  EC50: 21.4 µM (active)
BJ [6]
  EC50: 1.79 µM (active)
[7]
  EC50: 12.9 µM (inconclusive)
[8]
  IC50: > 80 µM (inactive)

## CC(C)C(=O)Nc1ccc2nn(-c3ccc(F)cc3)nc2c1
Caspase-3
  IC50: 8.48 µM (active)
[1]
  IC50: 3.03 µM (active)
[2]
  IC50: 6.19 µM (active)
[3]
  IC50: 41.3 µM (active)

## COC(=O)Nc1ccc(S(=O)(=O)N2c3ccccc3CCC2C)cc1 (stereo not given)
[9]
  AC50: 0.876 µM (active)
[8]
  IC50: > 80 µM (inactive)

## CCCCC(CC)C(=O)Nc1cc([N+](=O)[O-])ccc1F (stereo not given)
Fatty acid synthase [10]
  IC50: 3.19 µM (active)
Fatty acid synthase [11]
  IC50: 4.44 µM (active)

## CCCn1c(S)nnc1C(C)C
Beta-lactamase [12]
  IC50: > 59.6 µM (inactive)
Beta-lactamase [13]
  IC50: > 59.6 µM (inactive)
Beta-lactamase [14]
  IC50: > 59.6 µM (inactive)

## COC(=O)/C=C/C(=O)N1CCN(c2ccccc2C)CC1
[15]
  IC50: > 64 µM (inactive)

## O=C(C1CCN(S(=O)(=O)c2cccnc2)CC1)N1CCN(c2cccc(Cl)c2)CC1
[15]
  IC50: > 64 µM (inactive)

## O=C(CSc1nnc2scc(-c3ccccc3)n12)c1ccc2c(c1)OCCO2
[16]
  EC50: > 99 µM (inactive)
[17]
  EC50: > 99 µM (inactive)

## CCn1c(O)c(N=Nc2ccc3ccccc3n2)c2ccccc21
Caspase-3
  IC50: 2.1 µM (active)
[1]
  IC50: 0.857 µM (active)
[2]
  IC50: 1.11 µM (active)
[3]
  IC50: 1.83 µM (active)

## COc1ccccc1C(=O)Nc1nnc(SCC(=O)NCc2ccco2)s1
Beta-lactamase [12]
  IC50: > 59.6 µM (inactive)
Beta-lactamase [13]
  IC50: > 59.6 µM (inactive)
Beta-lactamase [14]
  IC50: > 59.6 µM (inactive)

## O=C(O)CCSc1nnc(SCC(=O)NCC(F)(F)F)s1
[15]
  IC50: > 64 µM (inactive)

## NC(=O)c1ccccc1NC(=O)/C=C/c1c(Cl)cccc1Cl
Caspase-3
  IC50: 21.5 µM (active)
[1]
  IC50: 6.11 µM (active)
[2]
  IC50: > 100 µM (inactive)
[3]
  IC50: > 100 µM (inactive)

## CCCn1c(O)c(N=Nc2ccc3ccccc3n2)c2ccccc21
[16]
  EC50: > 99 µM (inactive)
[17]
  EC50: > 99 µM (inactive)

## COc1ccc([N+](=O)[O-])cc1NC(=O)C(C)OC(=O)CC1CCCC1 (stereo not given)
Fatty acid synthase [10]
  IC50: 6.83 µM (active)
Fatty acid synthase [11]
  IC50: 5.28 µM (active)

## OC(C1CO1)C(O)C1CO1 (stereo not given)
P388/ADR
  GI50: 9.79 µM (inactive)
SN12K1
  GI50: 54.7 µM (inactive)
P388
  GI50: 13.5 µM (inactive)

## CC(C)(C)C(=O)OCc1ccc(C2=CC(=O)CC(C)(C)C2=O)cc1
Fatty acid synthase [10]
  IC50: 1.28 µM (active)
Fatty acid synthase [11]
  IC50: 3.9 µM (active)

## O=C1NC(O)CCN1C1OC(CO)C(O)C1O (stereo not given)
P388/ADR
  GI50: > 250 µM (inactive)
SN12K1
  GI50: > 250 µM (inactive)
P388
  GI50: > 250 µM (inactive)

## Cc1cc(C(=O)N/N=C/C(Cl)=C/c2ccccc2)c(C)o1
Caspase-3
  IC50: 18.2 µM (active)
[1]
  IC50: 7.77 µM (active)
[2]
  IC50: 22.6 µM (active)
[3]
  IC50: > 100 µM (inactive)

## CC(C)=CCc1cc(-c2oc3cc(O)cc(O)c3c(=O)c2O)ccc1O [ISOLICOFLAVONOL]
[16]
  EC50: 14 µM (active)
[17]
  EC50: > 99 µM (inactive)

## CC/C=C\C/C=C\C/C=C\CCCCCCCC(=O)OC [METHYL LINOLENATE]
P388/ADR
  GI50: 28.2 µM (inactive)
SN12K1
  GI50: > 100 µM (inactive)
P388
  GI50: > 10 µM (inactive)

## O=C1N[C@H]2[C@H](O)[C@H](O)[C@@H](O)[C@H](O)[C@@H]2c2cc3c(c(O)c21)OCO3 [PANCRATISTATIN]
P388/ADR
  GI50: 0.0406 µM (active)
SN12K1
  GI50: 0.047 µM (active)
P388
  GI50: 0.0366 µM (active)
